PubChem BioAssay AID588482 (NMMLSC, 2011)
Active and inactive are the calls of the source.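 How the source made its calls: active means a percent response above zero, which rounds up to a positive score; inactive means the rest.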

Target: Beta-adrenergic receptor kinase 1 (Homo sapiens) (UniProt P25098)
Assay: GRK2 kinase inhibitors, rhodopsin substrate, late-stage follow-up, orthogonal assay for GRK2 aptamer-displacement inhibitor project, biochemical, set 2 (AID 588482)
Conditions: GRK2 rhodopsin phosphorylation, 32P incorporation, SDS-PAGE; at 200 µM; hits give high values

Chain of Beta-adrenergic receptor kinase 1 (Homo sapiens) (P25098 whole entry, looked up): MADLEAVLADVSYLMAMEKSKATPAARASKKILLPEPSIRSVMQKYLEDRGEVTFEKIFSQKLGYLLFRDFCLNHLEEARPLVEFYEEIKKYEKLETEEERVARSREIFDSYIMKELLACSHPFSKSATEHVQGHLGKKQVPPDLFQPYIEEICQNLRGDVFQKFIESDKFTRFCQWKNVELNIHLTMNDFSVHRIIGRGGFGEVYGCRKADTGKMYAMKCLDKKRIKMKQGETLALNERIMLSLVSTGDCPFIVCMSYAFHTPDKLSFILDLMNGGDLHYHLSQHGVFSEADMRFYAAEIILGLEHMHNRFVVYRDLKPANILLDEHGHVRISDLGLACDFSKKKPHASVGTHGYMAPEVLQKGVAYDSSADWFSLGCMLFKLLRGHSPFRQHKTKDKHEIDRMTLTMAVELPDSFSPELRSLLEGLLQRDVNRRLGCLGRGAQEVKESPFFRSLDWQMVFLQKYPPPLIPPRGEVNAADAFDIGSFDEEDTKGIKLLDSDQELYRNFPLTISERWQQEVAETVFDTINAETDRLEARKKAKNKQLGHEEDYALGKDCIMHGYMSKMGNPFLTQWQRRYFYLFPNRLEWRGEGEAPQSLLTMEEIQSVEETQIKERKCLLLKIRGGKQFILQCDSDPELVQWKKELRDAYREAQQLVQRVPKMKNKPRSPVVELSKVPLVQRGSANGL

| inhibition | Compound |
| --- | --- |
| 59.3% | CCN(CC)c1ccc(NC(=O)CCS(=O)(=O)c2ccc(Br)cc2)c(C)c1 |
| 46.5% | O=C(O)Cc1ccc(-n2cccc2)cc1 |
| 8.45% | O=C(CCS(=O)(=O)c1ccc(Br)cc1)NCc1cccs1 |
| -20% (inactive) | CC(=O)N1CCN(Cc2nc3cc(Cl)ccc3c(=O)[nH]2)CC1 |
| 46.8% | CC(CS(=O)(=O)c1ccc2c(c1)NC(=O)CS2)C(=O)NCc1ccccc1Cl (stereo not drawn) |
| 11% | COc1ccc(Cl)cc1NC(=O)CCS(=O)(=O)c1ccc(Br)cc1 |
| -29.5% (inactive) | COc1ccc(CCNC(=O)CCS(=O)(=O)c2ccc(Br)cc2)cc1OC |
| -50.6% (inactive) | Cc1cccc(CCNC(=O)CCS(=O)(=O)c2ccc(Br)cc2)c1 |
| -90.5% (inactive) | COc1ccc(NC(=O)CCS(=O)(=O)c2ccc(Br)s2)cc1 |
| -7.11% (inactive) | Cc1ccccc1NC(=O)CCS(=O)(=O)c1ccc(Br)s1 |
| -71.8% (inactive) | COC(=O)c1ccc(NC(=O)CCS(=O)(=O)c2ccc(Br)cc2)cc1 |
| 0.79% | CCOc1ccccc1NC(=O)CCS(=O)(=O)c1ccc(Br)cc1 |
| -42.4% (inactive) | O=C(CN1CCc2ccccc21)NC(=O)NCc1ccccc1 |
| -32.3% (inactive) | O=C(CCS(=O)(=O)c1ccc(Br)s1)Nc1ccccc1Br |
| 11.4% | O=C(CCS(=O)(=O)c1ccc(Br)cc1)Nc1ccc(Br)cc1F |
| 36.7% | C#CCSc1nc2sc3c(c2c(=O)n1C)CCC3 |
| -18.3% (inactive) | COC(=O)c1ccccc1NC(=O)CCS(=O)(=O)c1ccc(Br)s1 |
| -54% (inactive) | O=C(CSc1nc2ccccc2c(=O)n1-c1ccccc1)NC(=O)CN1CCCC1=O |
| -28.6% (inactive) | CCOc1ccc(NC(=O)CCS(=O)(=O)c2ccc(Br)cc2)cc1 |
| -30.2% (inactive) | Cc1ccc(CCNC(=O)CCS(=O)(=O)c2ccc(Br)cc2)cc1 |
| -3.83% (inactive) | Cc1cc2ccccc2n1CCNC(=O)C(C)Oc1ccccc1 (stereo not drawn) |
| 30.9% | COc1ccc([N+](=O)[O-])cc1NC(=O)CCS(=O)(=O)c1ccc(Br)cc1 |
| -15.8% (inactive) | NS(=O)(=O)c1ccc(CCNC(=O)CCS(=O)(=O)c2ccc(Br)cc2)cc1 |
